According to ChEMBL document CHEMBL3352746, “Synthesis and anticancer activity of quinopimaric and maleopimaric acids’ derivatives” (Bioorg Med Chem, 2014):

Experiments:
[1] = Antitumor activity against mouse Ehrlich carcinoma cells implanted in mouse assessed as increase in life span at 50 mg/kg, ip dosed daily for 5 days administered 48 hrs after tumor implantation; assay type: functional; details: route intraperitoneal
Mus musculus [2] = assay: Toxicity in mouse P388 cells implanted mouse assessed as mean ascites volume at 40 mg/kg, ip dosed daily for 5 days administered 24 hrs after tumor implantation; assay type: organism-based; design: dose 40 mg/kg, route intraperitoneal; details: in vivo
Mus musculus [3] = assay: Toxicity in mouse P388 cells implanted mouse assessed as mean ascites volume at 10 mg/kg, ip dosed daily for 5 days administered 24 hrs after tumor implantation; assay type: organism-based; design: dose 10 mg/kg, route intraperitoneal; details: in vivo
Mus musculus [4] = assay: Toxicity in mouse P388 cells implanted mouse assessed as mean spleen weight at 60 mg/kg, ip dosed daily for 5 days administered 24 hrs after tumor implantation; assay type: organism-based; design: dose 60 mg/kg, route intraperitoneal; details: in vivo
Mus musculus [5] = assay: Toxicity in mouse P388 cells implanted mouse assessed as mean spleen weight at 20 mg/kg, ip dosed daily for 5 days administered 24 hrs after tumor implantation; assay type: organism-based; design: dose 20 mg/kg, route intraperitoneal; details: in vivo
Mus musculus [6] = assay: Toxicity in mouse P388 cells implanted mouse assessed as mouse mortality at 40 mg/kg, ip dosed daily for 5 days administered 24 hrs after tumor implantation; assay type: organism-based; design: dose 40 mg/kg, route intraperitoneal; details: in vivo
Mus musculus [7] = assay: Toxicity in mouse P388 cells implanted mouse assessed as mouse mortality at 10 mg/kg, ip dosed daily for 5 days administered 24 hrs after tumor implantation; assay type: organism-based; design: dose 10 mg/kg, route intraperitoneal; details: in vivo
[8] = tested on: Lewis lung carcinoma cell line; assay: Antitumor activity against mouse LLC cells implanted in mouse assessed as tumor growth inhibition at 40 mg/kg, ip dosed daily for 5 days measured 1 day after treatment termination; assay type: functional; details: route intraperitoneal, read-out: TGI
[9] = Antitumor activity against mouse CA-755 cells implanted in mouse assessed as tumor growth inhibition at 40 mg/kg, ip dosed daily for 5 days measured 8 to 9 days after treatment termination; assay type: functional; details: CA-755, ip, route intraperitoneal, read-out: TGI
[10] = tested on: Lewis lung carcinoma cell line; assay: Antitumor activity against mouse LLC cells implanted in mouse assessed as tumor growth inhibition at 40 mg/kg, ip dosed daily for 5 days measured 8 to 9 days after treatment termination; assay type: functional; details: route intraperitoneal, read-out: TGI
[11] = Antitumor activity against mouse CA-755 cells implanted in mouse assessed as tumor growth inhibition at 40 mg/kg, ip dosed daily for 5 days measured 12 days after treatment termination; assay type: functional; details: CA-755, ip, route intraperitoneal, read-out: TGI
[12] = tested on: Lewis lung carcinoma cell line; assay: Antitumor activity against mouse LLC cells implanted in mouse assessed as tumor growth inhibition at 40 mg/kg, ip dosed daily for 5 days measured 12 days after treatment termination; assay type: functional; details: route intraperitoneal, read-out: TGI
[13] = Antitumor activity against mouse AKATOL cells implanted in mouse assessed as tumor growth inhibition at 40 mg/kg, ip dosed daily for 5 days measured 16 days after treatment termination; assay type: functional; details: route intraperitoneal, read-out: TGI
[14] = tested on: Lewis lung carcinoma cell line; assay: Antitumor activity against mouse LLC cells implanted in mouse assessed as tumor growth inhibition at 40 mg/kg, ip dosed daily for 5 days measured 16 days after treatment termination; assay type: functional; details: route intraperitoneal, read-out: TGI
[15] = Antitumor activity against mouse CA-755 cells implanted in mouse assessed as increase in life span at 40 mg/kg, ip dosed daily for 5 days; assay type: functional; details: CA-755, ip, 120 h, route intraperitoneal
[16] = Antitumor activity against mouse AKATOL cells implanted in mouse assessed as tumor growth inhibition at 40 mg/kg, ip dosed daily for 5 days measured 19 days after treatment termination; assay type: functional; details: route intraperitoneal, read-out: TGI
[17] = Growth inhibition of human EKVX cells; assay type: functional
[18] = Growth inhibition of human HOP92 cells; assay type: functional
NCI-H23 = assay: Growth inhibition of human NCI-H23 cells; assay type: functional
NCI-H322M = assay: Growth inhibition of human NCI-H322M cells; assay type: functional
[19] = Growth inhibition of human HCC2998 cells; assay type: functional
[20] = Growth inhibition of human HCT15 cells; assay type: functional
HT-29 = assay: Growth inhibition of human HT-29 cells; assay type: functional
[21] = Growth inhibition of human SF295 cells; assay type: functional
SNB-75 = assay: Growth inhibition of human SNB75 cells; assay type: functional
U-251 = assay: Growth inhibition of human U251 cells; assay type: functional
[22] = Growth inhibition of human LOXIMVI cells; assay type: functional; details: LOX IMVI
MDA-MB-435 = assay: Growth inhibition of human MDA-MB-435 cells; assay type: functional
M14 = assay: Growth inhibition of human M14 cells; assay type: functional
IGROV-1 = assay: Growth inhibition of human IGROV1 cells; assay type: functional
[23] = Growth inhibition of human OVCAR5 cells; assay type: functional
[24] = Growth inhibition of human NCI-ADR-RES cells; assay type: functional
SK-OV-3 = assay: Growth inhibition of human SKOV3 cells; assay type: functional
SN12C = assay: Growth inhibition of human SN12C cells; assay type: functional
DU-145 = assay: Growth inhibition of human DU145 cells; assay type: functional
[25] = Growth inhibition of human PC3 cells; assay type: functional
MCF7 = assay: Growth inhibition of human MCF7 cells; assay type: functional
MDA-MB-231 = assay: Growth inhibition of human MDA-MB-231 cells; assay type: functional
[26] = Growth inhibition of human BT549 cells; assay type: functional
T47D = assay: Growth inhibition of human T47D cells; assay type: functional
MDA-MB-468 = assay: Growth inhibition of human MDA-MB-468 cells; assay type: functional
[27] = read-out: pLC50 (the source's name) (converted)

`COC(=O)[C@]1(C)CCC[C@]2(C)[C@H]3C[C@H]4C(C(C)C)=C[C@]3(CC[C@H]21)[C@@H]1/C(=N/O)CC/C(=N\O)[C@@H]14` gave an ILS at 50 mg/kg [1] of -3%, an Activity (Mus musculus [2]) of 1.2 mL and an Activity (Mus musculus [3]) of 1.3 mL. For the same compound, the Activity (Mus musculus [4]) was 144 mg, the Activity (Mus musculus [5]) was 101 mg and the Activity (Mus musculus [6]) was “Non-toxic”. For the same compound, the Activity (Mus musculus [7]) was “Non-toxic”, the inhibition in vivo at 40 mg/kg [8] was 47% and the inhibition in vivo at 40 mg/kg [9] was 52%. It also gave an inhibition in vivo at 40 mg/kg [10] of 20%, an inhibition in vivo at 40 mg/kg [11] of 35% and an inhibition in vivo at 40 mg/kg [12] of 30%. For the same compound, the inhibition in vivo at 40 mg/kg [13] was 47%, the inhibition in vivo at 40 mg/kg [14] was 34% and the ILS at 40 mg/kg [15] was 11%. The inhibition in vivo at 40 mg/kg [16] was 44%, the GI50 [17] was 3.72 µM and the CC50 [17, 27] was 79.4 µM. It also gave a TGI ([17]; read-out: pTGI (converted)) of 18.2 µM, a GI50 ([18]; HOP-92) of 2.09 µM and a CC50 ([18]; HOP-92, read-out: pLC50 (the source's name) (converted)) of 39.8 µM. The TGI ([18]; HOP-92, read-out: pTGI (converted)) was 5.01 µM, the GI50 (NCI-H23) was 3.72 µM and the CC50 (NCI-H23; [27]) was 93.3 µM. For the same compound, the TGI (NCI-H23; read-out: pTGI (converted)) was 15.8 µM, the GI50 (NCI-H322M) was 2.69 µM and the CC50 (NCI-H322M; [27]) was 20.9 µM. The TGI (NCI-H322M; read-out: pTGI (converted)) was 6.17 µM, the GI50 ([19]; HCC 2998) was 2.75 µM and the CC50 ([19]; HCC 2998, read-out: pLC50 (the source's name) (converted)) was 33.1 µM. For the same compound, the TGI ([19]; HCC 2998, read-out: pTGI (converted)) was 6.46 µM, the GI50 ([20]; HCT-15) was 3.39 µM and the CC50 ([20]; HCT-15, read-out: pLC50 (the source's name) (converted)) was 39.8 µM. The TGI ([20]; HCT-15, read-out: pTGI (converted)) was 12.9 µM, the GI50 (HT-29) was 2.69 µM and the CC50 (HT-29; [27]) was 52.5 µM. It also gave a TGI (HT-29; read-out: pTGI (converted)) of 7.94 µM, a GI50 ([21]; SF-295) of 5.89 µM and a CC50 ([21]; SF-295, read-out: pLC50 (the source's name) (converted)) of 64.6 µM. For the same compound, the TGI ([21]; SF-295, read-out: pTGI (converted)) was 21.4 µM, the GI50 (SNB-75) was 4.9 µM and the CC50 (SNB-75; [27]) was 63.1 µM. For the same compound, the TGI (SNB-75; read-out: pTGI (converted)) was 20.4 µM, the GI50 (U-251) was 4.07 µM and the CC50 (U-251; [27]) was 39.8 µM. It also gave a TGI (U-251; read-out: pTGI (converted)) of 15.1 µM, a GI50 [22] of 2 µM and a CC50 [22, 27] of 7.76 µM. For the same compound, the TGI ([22]; read-out: pTGI (converted)) was 3.98 µM, the GI50 (MDA-MB-435) was 4.9 µM and the CC50 (MDA-MB-435; [27]) was 95.5 µM. It also gave a TGI (MDA-MB-435; read-out: pTGI (converted)) of 23.4 µM, a GI50 (M14) of 5.25 µM and a CC50 (M14; [27]) of 55 µM. The TGI (M14; read-out: pTGI (converted)) was 18.6 µM, the GI50 (IGROV-1; IGROV-1) was 4.57 µM and the CC50 (IGROV-1; IGROV-1, read-out: pLC50 (converted)) was > 100 µM. For the same compound, the TGI (IGROV-1; IGROV-1, read-out: pTGI (converted)) was 21.9 µM, the GI50 ([23]; OVCAR-5) was 5.62 µM and the CC50 ([23]; OVCAR-5, read-out: pLC50 (the source's name) (converted)) was 63.1 µM. The TGI ([23]; OVCAR-5, read-out: pTGI (converted)) was 20 µM, the GI50 [24] was 3.16 µM and the CC50 ([24]; read-out: pLC50 (converted)) was > 100 µM. For the same compound, the TGI ([24]; read-out: pTGI (converted)) was 9.55 µM, the GI50 (SK-OV-3) was 10.2 µM and the CC50 (SK-OV-3; [27]) was 47.9 µM. The TGI (SK-OV-3; read-out: pTGI (converted)) was 22.4 µM, the GI50 (SN12C) was 1.86 µM and the CC50 (SN12C; [27]) was 8.13 µM. The TGI (SN12C; read-out: pTGI (converted)) was 3.89 µM, the GI50 (DU-145; DU-145) was 3.02 µM and the CC50 (DU-145; DU-145, read-out: pLC50 (converted)) was > 100 µM. It also gave a TGI (DU-145; DU-145, read-out: pTGI (converted)) of 15.8 µM, a GI50 ([25]; PC-3) of 4.37 µM and a CC50 ([25]; PC-3, read-out: pLC50 (the source's name) (converted)) of 45.7 µM. The TGI ([25]; PC-3, read-out: pTGI (converted)) was 15.1 µM, the GI50 (MCF7) was 1.78 µM and the CC50 (MCF7; [27]) was 9.55 µM. It also gave a TGI (MCF7; read-out: pTGI (converted)) of 4.07 µM, a GI50 (MDA-MB-231) of 7.24 µM and a CC50 (MDA-MB-231; [27]) of 56.2 µM. It also gave a TGI (MDA-MB-231; read-out: pTGI (converted)) of 22.4 µM, a GI50 ([26]; BT-549) of 3.55 µM and a CC50 ([26]; BT-549, read-out: pLC50 (the source's name) (converted)) of 36.3 µM. For the same compound, the TGI ([26]; BT-549, read-out: pTGI (converted)) was 11.2 µM, the GI50 (T47D) was 1.91 µM and the CC50 (T47D; [27]) was 24.5 µM. It also gave a TGI (T47D; read-out: pTGI (converted)) of 4.68 µM, a GI50 (MDA-MB-468) of 4.68 µM and a CC50 (MDA-MB-468; [27]) of 64.6 µM. It also gave a TGI (MDA-MB-468; read-out: pTGI (converted)) of 20 µM.
